In patent US20250073240A1, “NEW TREATMENT” (Verona Pharma PLC, priority 2023, published 2025):

Tests used:
Type in all cases: in vivo, human
[1] = system: patients with moderate to severe COPD; assay: Phase 3 clinical study (Example 1): safety assessment, risk of pneumonia; conditions: patients with blood eosinophil count <300 cells/μL
Description: (§1) A clinical study was conducted to determine the efficacy of ensifentrine in treating COPD compared with placebo. Ensifentrine was administered by nebuliser at a dose of 3 mg twice daily (BID) for 24 weeks. The study was a multi-centre, randomized, double-blind, parallel-group, placebo-controlled trial with around 800 patients and 5:3 randomization.
(§2) The study population included patients aged 40-80 years with moderate to severe COPD (FEV1 30%-70% p.n., FEV1/forced vital capacity (FVC) ratio <0.7, with mMRC≥2). The randomization stratified (a) the use of stable background maintenance LAMA or LABA therapy use (approx. 50%. yes or no) and (b) cigarette smoking (current or former). Inhaled corticosteroid (ICS) maintenance therapy was permitted in up to 20% of patients under certain provisions.

[2] = system: patients with moderate to severe COPD; assay: Phase 3 clinical study (Example 1): moderate/severe COPD exacerbations, by blood eosinophil count
Description: as §1, §2
(§3) The primary endpoint of the study was change from baseline in average FEV1 area under the curve (AUC)0-12 h post-dose at week 12. Secondary endpoints of the study included: frequency of moderate/severe COPD exacerbations over 24 Weeks; time to first moderate/severe COPD exacerbation; and effect of blood eosinophil count of patients.
Exacerbations were defined as worsening of 2 or more major symptoms (dyspnea, sputum volume, and sputum purulence) or worsening of any 1 major symptom together with any 1 of the following minor symptoms: sore throat, colds, fever without other cause, and increased cough or wheeze for at least 2 consecutive days. COPD exacerbations were considered to be of moderate severity if treatment with systemic corticosteroids and/or antibiotics was required and were considered to be severe if hospitalization was required.
The blood eosinophil count of patients was determined as follows. • A blood sample (2 mL) was collected in 2 mL EDTA tube and mixed immediately using gentle inversion 8-10 times. • Eosinophils were tested as part of the Complete Blood Count (CBC) test panel and are part of the White Blood Cell (WBC) differential. • Testing was performed on the Beckman Coulter DxH 800, with testing performed daily on ambient samples. • The haematology parameters that constitute the CBC panel were produced using methods and technologies within the DxH800, including Coulter principle and VCSn laser flow cell technology. • The WBC differential was obtained using VCSn technology (Volume, Conductivity and Scatter) based on simultaneous measuring of cell volume, high frequency conductivity and laser light scatter. This produced an automated WBC differential. • During analysis, if any parameter was abnormal or outside established limits the instrument flagged this as abnormal and produced a stained blood slide. • Blood film review was completed using manual microscopy and a technician confirmed any abnormal findings. • The technician could have also provided a manual WBC differential during blood film review or confirm the automated WBC differential. • Finalised results were then provided.
(§4) The investigational product and placebo were provided in 2.5 mL unit dose format in an ampule and administered via a nebuliser.

[3] = system: patients with symptomatic, moderate-to-severe COPD; assay: Pooled analysis of two phase 3 trials (Example 2): moderate/severe exacerbation rate and time to first exacerbation
[4] = system: patients with moderate to severe COPD; assay: Phase 3 clinical study (Example 1): lung function, average FEV1 AUC0-12h
Description: as §1, §2, §3
Baseline FEV1 is the mean of the two measurements taken before study medication on the day of first dosing, i.e. <40 minutes and just prior to dosing, both pre-dose on day 1.
Average FEV1 AUC0-12 h is defined as area under the curve over 12 hours of the FEV1, divided by 12 hours.
as §4

[5] = Blood eosinophils > 150 cells/μL (n = 445)
[6] = Blood eosinophils ≤ 150 cells/μL (n = 343)
[7] = Blood eosinophils < 100 cells/μL (n = 10)
[8] = Blood eosinophils ≥ 100 cells/μL (n = 74)

With `COc1cc2c(cc1OC)-c1c/c(=N\c3c(C)cc(C)cc3C)n(CCNC(N)=O)c(=O)n1CC2` [Ensifentrine, N-(2-{(2E)-9,10-dimethoxy-4-oxo-2-[(2,4,6-trimethylphenyl)imino]-6,7-dihydro-2H-pyrimido[6,1-a]isoquinolin-3(4H)-yl}ethyl)urea] the risk of pneumonia [1] was “no significant increase”, the “Exacerbation Rate Reduction” value [2, 5] was 43% and the “Rate Ratio (95% Confidence Interval), COPD exacerbations” value [2, 5] was 0.57 (0.34, 0.97). For the same compound, the “Exacerbation Rate Reduction” value [2, 6] was 42%, the “Rate Ratio (95% Confidence Interval), COPD exacerbations” value [2, 6] was 0.58 (0.30, 1.14) and the “reduction in relative risk of moderate or severe COPD exacerbation vs placebo” value (shortened to “reduction in relative risk”) ([2]; all patients, 3 mg BID, 24 weeks) was “approximately 40%”. The “reduction in relative risk” value ([2]; subgroup blood eosinophil count <150 cells/μL) was “around 40%”, the “reduction in relative risk” value ([2]; subgroup blood eosinophil count <300 cells/μL) was “around 50%” and the “Hazard Ratio (95% Confidence Interval), time to first moderate/severe exacerbation” value [3, 7] was 0.52 (0.22, 1.24). For the same compound, the “Rate Ratio (95% Confidence Interval), moderate/severe exacerbation” value [3, 7] was 0.50 (0.22, 1.17), the “Hazard Ratio (95% Confidence Interval), time to first moderate/severe exacerbation” value ([3]; Blood eosinophils < 300 cells/μL (n = 60)) was 0.53 (0.37, 0.76) and the “Rate Ratio (95% Confidence Interval), moderate/severe exacerbation” value ([3]; Blood eosinophils < 300 cells/μL (n = 65)) was 0.53 (0.37, 0.75). For the same compound, the “Hazard Ratio (95% Confidence Interval), time to first moderate/severe exacerbation” value [3, 8] was 0.60 (0.43, 0.83), the “Rate Ratio (95% Confidence Interval), moderate/severe exacerbation” value [3, 8] was 0.60 (0.43, 0.84) and the “Hazard Ratio (95% Confidence Interval), time to first moderate/severe exacerbation” value ([3]; Blood eosinophils ≥ 300 cells/μL (n = 24)) was 0.79 (0.43, 1.45). For the same compound, the “Rate Ratio (95% Confidence Interval), moderate/severe exacerbation” value ([3]; Blood eosinophils ≥ 300 cells/μL (n = 29)) was 0.82 (0.45, 1.51), the “reduction in exacerbation rate” value ([3]; blood eosinophil counts <100 cells/μL) was “about 50%” and the “reduction in exacerbation rate” value ([3]; blood eosinophil counts ≤300 cells/μL) was “about 47%”. For the same compound, the “number needed to treat (NNT) for the prevention of 1 exacerbation annually” value ([3]; pooled population) was 6.25 patients, the “reduction in the moderate/severe exacerbation rate compared with placebo” value ([3]; pooled population, 3 mg BID over 24 weeks) was 41% and the “reduction in risk (Cox proportional hazards model), time to first moderate/severe exacerbation” value ([3]; pooled population, 24 weeks) was 41%. For the same compound, the “rate ratio, moderate/severe exacerbation rate” value ([3]; pooled population, 24 weeks, 95% CI 0.43-0.80) was 0.59, the “hazard ratio, time to first moderate/severe exacerbation” value ([3]; pooled population, 24 weeks, 95% CI 0.44-0.81) was 0.59 and the “time to first moderate/severe exacerbation compared with placebo” value ([3]; pooled population, over 24 weeks, log rank test P=0.001) was “significantly delayed”. The “transition from lower to higher exacerbation risk (group B to group E) compared with placebo” value ([3]; post hoc analysis, 24 weeks) was “numerically delayed”, the “Average FEV1 (AUC)0-12 h post-dose at Week 12: Change from Baseline, CFB Least Squares Mean (95% CI)” value ([4]; 3 mg BID by nebuliser, week 12, n = 498) was 48.2 (30.0, 66.5) mL and the “Average FEV1 (AUC)0-12 h post-dose at Week 12: Placebo-corrected CFB LS Mean Diff (95% CI)” value ([4]; 3 mg BID by nebuliser, week 12, vs placebo) was 93.9 (64.5, 123.3) mL. The “improvement in lung function” value ([4]; all subgroups, 3 mg BID) was “statistically significant”.
